{
  "source": "paper PMC8691750",
  "about": "“Euphorbia Factor L2 ameliorates the Progression of K/BxN Serum-Induced Arthritis by Blocking TLR7 Mediated IRAK4/IKKβ/IRF5 and NF-kB Signaling Pathways” (Frontiers in Pharmacology, 2021)",
  "test_system": "TLR signalling pathway genes",
  "assay": "Toll-like Receptor Pathway PCR array of ankles",
  "assay_type": "in vivo, C57BL/6 mice",
  "settings": "for S40/SIA (fold change) / log2(fold change) S40/SIA: S40 group vs SIA group",
  "method": "Total RNA was isolated from the right ankles using the TRIzol Reagent (Invitrogen) and purified with RNeasy Mini Kit and RNase-Free DNase Set (Qiagen). RNA quality was determined using a spectrophotometer and was reversely transcribed using Wcgene® mRNA cDNA kit. The complementary DNA was used on the Toll-like Receptor Pathway PCR Array plate (Wcgene® biotech, China).",
  "note": "Several values for one entry are separate records, joined by “and”; a condition that tells them apart may be missing. Equal values may be shown once.",
  "data": [
    {"smiles": "C=C1C(OC(=O)c2ccccc2)CC2C(C=C(C)C(=O)C3(OC(C)=O)CC(C)C(OC(=O)c4ccccc4)C3C1OC(C)=O)C2(C)C", "note": "(stereo not shown) [EFL2, Euphorbia factor L2]", "values": [
      {"measurement": "S40/SIA (fold change)", "setting": "Irak2 mRNA", "value": 0.4814},
      {"measurement": "log2(fold change) S40/SIA", "setting": "Irak2 mRNA", "value": -1.055},
      {"measurement": "fold-GAPDH, Irak3", "setting": "Irak3 mRNA in ankles of STA mice, relative to GAPDH, one value per animal (samples S401-S405)", "value": "0.01639 and 0.02176 and 0.01462 and 0.00868"},
      {"measurement": "S40/SIA (fold change)", "setting": "Irak3 mRNA", "value": 0.4891},
      {"measurement": "log2(fold change) S40/SIA", "setting": "Irak3 mRNA", "value": -1.032},
      {"measurement": "fold-GAPDH, Irak4", "setting": "Irak4 mRNA in ankles of STA mice, relative to GAPDH, one value per animal (samples S401-S405)", "value": "0.005444 and 0.007871 and 0.004771 and 0.003248"},
      {"measurement": "fold-GAPDH, Irf1", "setting": "Irf1 mRNA in ankles of STA mice, relative to GAPDH, one value per animal (samples S401-S405)", "value": "0.006938 and 0.008232"},
      {"measurement": "S40/SIA (fold change)", "setting": "Irf1 mRNA", "value": 0.3319},
      {"measurement": "log2(fold change) S40/SIA", "setting": "Irf1 mRNA", "value": -1.591},
      {"measurement": "fold-GAPDH, Irf3", "setting": "Irf3 mRNA in ankles of STA mice, relative to GAPDH, one value per animal (samples S401-S405)", "value": "0.01116 and 0.01143 and 0.004857"},
      {"measurement": "S40/SIA (fold change)", "setting": "Irf3 mRNA", "value": 0.3241},
      {"measurement": "log2(fold change) S40/SIA", "setting": "Irf3 mRNA", "value": -1.626},
      {"measurement": "fold-GAPDH, Jun", "setting": "Jun mRNA in ankles of STA mice, relative to GAPDH, one value per animal (samples S401-S405)", "value": "0.04078 and 0.0443 and 0.03642 and 0.03036"},
      {"measurement": "S40/SIA (fold change)", "setting": "Jun mRNA", "value": 0.3678},
      {"measurement": "log2(fold change) S40/SIA", "setting": "Jun mRNA", "value": -1.443},
      {"measurement": "fold-GAPDH, Ly86", "setting": "Ly86 mRNA in ankles of STA mice, relative to GAPDH, one value per animal (samples S401-S405)", "value": "0.008619 and 0.01651 and 0.01407 and 0.001011"},
      {"measurement": "fold-GAPDH, Ly96", "setting": "Ly96 mRNA in ankles of STA mice, relative to GAPDH, one value per animal (samples S401-S405)", "value": "0.00648 and 0.008818 and 0.008037 and 0.003545"},
      {"measurement": "S40/SIA (fold change)", "setting": "Ly96 mRNA", "value": 0.3878},
      {"measurement": "log2(fold change) S40/SIA", "setting": "Ly96 mRNA", "value": -1.367},
      {"measurement": "fold-GAPDH, Map2k3", "setting": "Map2k3 mRNA in ankles of STA mice, relative to GAPDH, one value per animal (samples S401-S405)", "value": "0.0383 and 0.04062 and 0.04366 and 0.0009844"},
      {"measurement": "fold-GAPDH, Map2k4", "setting": "Map2k4 mRNA in ankles of STA mice, relative to GAPDH, one value per animal (samples S401-S405)", "value": "0.006054 and 0.009032 and 0.01171 and 0.005161"},
      {"measurement": "S40/SIA (fold change)", "setting": "Map2k4 mRNA", "value": 0.8651},
      {"measurement": "log2(fold change) S40/SIA", "setting": "Map2k4 mRNA", "value": -0.209},
      {"measurement": "fold-GAPDH, Map3k1", "setting": "Map3k1 mRNA in ankles of STA mice, relative to GAPDH, one value per animal (samples S401-S405)", "value": "0.006062 and 0.005781 and 0.1236"},
      {"measurement": "fold-GAPDH, Map3k7", "setting": "Map3k7 mRNA in ankles of STA mice, relative to GAPDH, one value per animal (samples S401-S405)", "value": "0.01592 and 0.021 and 0.01646 and 0.01133"},
      {"measurement": "fold-GAPDH, Mapk8ip3", "setting": "Mapk8ip3 mRNA in ankles of STA mice, relative to GAPDH, one value per animal (samples S401-S405)", "value": "0.001064 and 0.001038"},
      {"measurement": "fold-GAPDH, Mapk8", "setting": "Mapk8 mRNA in ankles of STA mice, relative to GAPDH, one value per animal (samples S401-S405)", "value": "0.01945 and 0.02479 and 0.0101"},
      {"measurement": "fold-GAPDH, Mapk9", "setting": "Mapk9 mRNA in ankles of STA mice, relative to GAPDH, one value per animal (samples S401-S405)", "value": "0.001275 and 0.001267 and 0.00173 and 0.000754"},
      {"measurement": "fold-GAPDH, Muc13", "setting": "Muc13 mRNA in ankles of STA mice, relative to GAPDH, one value per animal (samples S401-S405)", "value": "6.559e-5 and 0.0002674 and 0.000223 and 0.0001076"},
      {"measurement": "fold-GAPDH, Myd88", "setting": "Myd88 mRNA in ankles of STA mice, relative to GAPDH, one value per animal (samples S401-S405)", "value": "0.009066 and 0.0089 and 0.006533 and 0.004478"},
      {"measurement": "S40/SIA (fold change)", "setting": "Myd88 mRNA", "value": 0.1447},
      {"measurement": "log2(fold change) S40/SIA", "setting": "Myd88 mRNA", "value": -2.789},
      {"measurement": "fold-GAPDH, Nfkb1", "setting": "Nfkb1 mRNA in ankles of STA mice, relative to GAPDH, one value per animal (samples S401-S405)", "value": "0.02137 and 0.03037 and 0.044 and 0.01259"},
      {"measurement": "fold-GAPDH, Nfkb2", "setting": "Nfkb2 mRNA in ankles of STA mice, relative to GAPDH, one value per animal (samples S401-S405)", "value": "0.005983 and 0.008129 and 0.004372 and 0.004079"},
      {"measurement": "S40/SIA (fold change)", "setting": "Nfkb2 mRNA", "value": 0.2395},
      {"measurement": "log2(fold change) S40/SIA", "setting": "Nfkb2 mRNA", "value": -2.062},
      {"measurement": "fold-GAPDH, Nfkbia", "setting": "Nfkbia mRNA in ankles of STA mice, relative to GAPDH, one value per animal (samples S401-S405)", "value": "0.03064 and 0.03111 and 0.02056 and 0.01675"},
      {"measurement": "S40/SIA (fold change)", "setting": "Nfkbia mRNA", "value": 0.2445},
      {"measurement": "log2(fold change) S40/SIA", "setting": "Nfkbia mRNA", "value": -2.032},
      {"measurement": "fold-GAPDH, Nfkbib", "setting": "Nfkbib mRNA in ankles of STA mice, relative to GAPDH, one value per animal (samples S401-S405)", "value": "0.00388 and 0.005737 and 0.004539 and 0.002397"},
      {"measurement": "S40/SIA (fold change)", "setting": "Nfkbib mRNA", "value": 0.4073},
      {"measurement": "log2(fold change) S40/SIA", "setting": "Nfkbib mRNA", "value": -1.2959},
      {"measurement": "fold-GAPDH, Nfrkb", "setting": "Nfrkb mRNA in ankles of STA mice, relative to GAPDH, one value per animal (samples S401-S405)", "value": "0.003341 and 0.001769 and 0.003291"},
      {"measurement": "fold-GAPDH, Nr2c2", "setting": "Nr2c2 mRNA in ankles of STA mice, relative to GAPDH, one value per animal (samples S401-S405)", "value": "0.008167 and 0.009954 and 0.006912 and 0.004742"},
      {"measurement": "S40/SIA (fold change)", "setting": "Nr2c2 mRNA", "value": 0.5521},
      {"measurement": "log2(fold change) S40/SIA", "setting": "Nr2c2 mRNA", "value": -0.8571},
      {"measurement": "fold-GAPDH, Peli1", "setting": "Peli1 mRNA in ankles of STA mice, relative to GAPDH, one value per animal (samples S401-S405)", "value": "0.01623 and 0.02035 and 0.01296 and 0.0006428"},
      {"measurement": "S40/SIA (fold change)", "setting": "Peli1 mRNA", "value": 0.462},
      {"measurement": "log2(fold change) S40/SIA", "setting": "Peli1 mRNA", "value": -1.114},
      {"measurement": "fold-GAPDH, Pglyrp1", "setting": "Pglyrp1 mRNA in ankles of STA mice, relative to GAPDH, one value per animal (samples S401-S405)", "value": "0.001422 and 0.0004159 and 0.002383"},
      {"measurement": "S40/SIA (fold change)", "setting": "Pglyrp1 mRNA", "value": 0.2161},
      {"measurement": "log2(fold change) S40/SIA", "setting": "Pglyrp1 mRNA", "value": -2.21},
      {"measurement": "fold-GAPDH, Ppara", "setting": "Ppara mRNA in ankles of STA mice, relative to GAPDH, one value per animal (samples S401-S405)", "value": "0.001398 and 0.003006 and 0.002272 and 0.0004292"},
      {"measurement": "fold-GAPDH, Ptgs2", "setting": "Ptgs2 mRNA in ankles of STA mice, relative to GAPDH, one value per animal (samples S401-S405)", "value": "0.001434 and 0.000397 and 0.0002674 and 0.0003018"},
      {"measurement": "S40/SIA (fold change)", "setting": "Ptgs2 mRNA", "value": 0.03786},
      {"measurement": "log2(fold change) S40/SIA", "setting": "Ptgs2 mRNA", "value": -4.723},
      {"measurement": "S40/SIA (fold change)", "setting": "Rel mRNA", "value": 0.2762},
      {"measurement": "log2(fold change) S40/SIA", "setting": "Rel mRNA", "value": -1.8562},
      {"measurement": "S40/SIA (fold change)", "setting": "Ticam1 mRNA", "value": 0.59},
      {"measurement": "log2(fold change) S40/SIA", "setting": "Ticam1 mRNA", "value": -0.7611},
      {"measurement": "S40/SIA (fold change)", "setting": "Tlr2 mRNA", "value": 0.1682},
      {"measurement": "log2(fold change) S40/SIA", "setting": "Tlr2 mRNA", "value": -2.571},
      {"measurement": "S40/SIA (fold change)", "setting": "Tlr3 mRNA", "value": 0.7859},
      {"measurement": "log2(fold change) S40/SIA", "setting": "Tlr3 mRNA", "value": -0.3477},
      {"measurement": "S40/SIA (fold change)", "setting": "Tlr4 mRNA", "value": 0.5705},
      {"measurement": "log2(fold change) S40/SIA", "setting": "Tlr4 mRNA", "value": -0.8096},
      {"measurement": "S40/SIA (fold change)", "setting": "Tlr5 mRNA", "value": 0.188},
      {"measurement": "log2(fold change) S40/SIA", "setting": "Tlr5 mRNA", "value": -2.411},
      {"measurement": "S40/SIA (fold change)", "setting": "Tlr7 mRNA", "value": 0.09461},
      {"measurement": "log2(fold change) S40/SIA", "setting": "Tlr7 mRNA", "value": -3.402}
    ]}
  ]
}
